From PubChem BioAssay AID2060908 (Molecular Pharmacology Branch, DTP, NCI, 2025)
pIC50: −log10 of the molar value.

Test system: 186277-243-T-J2-PDC complex spheroids, viability
Experiment: Anticancer human tumor 186277-243-T-J2-PDC patient-derived colon adenocarcinoma cell line growth inhibition [RAS]
Conditions: for pIC50: curve of first compound; for viability, T/C: stronger effect = lower value
Outline: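 Agents were tested in combination matrices in half-log decrements from a top concentration at or near clinical Cmax (10 microM if undetermined). Targets were multi-cell spheroids of tumour lines plus HUVEC and MSC stromal cells.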

[1] = second compound 0.0316 µM, first compound 0.0316 µM
[2] = second compound 0.0316 µM, first compound 0.1 µM
[3] = second compound 0.0316 µM, first compound 0.316 µM
[4] = second compound 0.0316 µM, first compound 1 µM
[5] = second compound 0.0316 µM, first compound 3.16 µM
[6] = second compound 0.0316 µM, first compound 10 µM
[7] = second compound 0.1 µM, first compound 0.0316 µM
[8] = second compound 0.1 µM, first compound 0.1 µM
[9] = second compound 0.1 µM, first compound 0.316 µM
[10] = second compound 0.1 µM, first compound 1 µM
[11] = second compound 0.1 µM, first compound 3.16 µM
[12] = second compound 0.1 µM, first compound 10 µM
[13] = second compound 0.316 µM, first compound 0.0316 µM
[14] = second compound 0.316 µM, first compound 0.1 µM
[15] = second compound 0.316 µM, first compound 0.316 µM
[16] = second compound 0.316 µM, first compound 1 µM
[17] = second compound 0.316 µM, first compound 3.16 µM
[18] = second compound 0.316 µM, first compound 10 µM
[19] = second compound 1 µM, first compound 0.0316 µM
[20] = second compound 1 µM, first compound 0.1 µM
[21] = second compound 1 µM, first compound 0.316 µM
[22] = second compound 1 µM, first compound 1 µM
[23] = second compound 1 µM, first compound 3.16 µM
[24] = second compound 1 µM, first compound 10 µM
[25] = second compound 3.16 µM, first compound 0.0316 µM
[26] = second compound 3.16 µM, first compound 0.1 µM
[27] = second compound 3.16 µM, first compound 0.316 µM
[28] = second compound 3.16 µM, first compound 1 µM
[29] = second compound 3.16 µM, first compound 3.16 µM
[30] = second compound 3.16 µM, first compound 10 µM
[31] = second compound 10 µM, first compound 0.0316 µM
[32] = second compound 10 µM, first compound 0.1 µM
[33] = second compound 10 µM, first compound 0.316 µM
[34] = second compound 10 µM, first compound 1 µM
[35] = second compound 10 µM, first compound 3.16 µM
[36] = second compound 10 µM, first compound 10 µM
[37] = second compound 0.000949 µM, first compound 0.0316 µM
[38] = second compound 0.000949 µM, first compound 0.1 µM
[39] = second compound 0.000949 µM, first compound 0.316 µM
[40] = second compound 0.000949 µM, first compound 1 µM
[41] = second compound 0.000949 µM, first compound 3.16 µM
[42] = second compound 0.000949 µM, first compound 10 µM
[43] = second compound 0.003 µM, first compound 0.0316 µM
[44] = second compound 0.003 µM, first compound 0.1 µM
[45] = second compound 0.003 µM, first compound 0.316 µM
[46] = second compound 0.003 µM, first compound 1 µM
[47] = second compound 0.003 µM, first compound 3.16 µM
[48] = second compound 0.003 µM, first compound 10 µM
[49] = second compound 0.00949 µM, first compound 0.0316 µM
[50] = second compound 0.00949 µM, first compound 0.1 µM
[51] = second compound 0.00949 µM, first compound 0.316 µM
[52] = second compound 0.00949 µM, first compound 1 µM
[53] = second compound 0.00949 µM, first compound 3.16 µM
[54] = second compound 0.00949 µM, first compound 10 µM
[55] = second compound 0.03 µM, first compound 0.0316 µM
[56] = second compound 0.03 µM, first compound 0.1 µM
[57] = second compound 0.03 µM, first compound 0.316 µM
[58] = second compound 0.03 µM, first compound 1 µM
[59] = second compound 0.03 µM, first compound 3.16 µM
[60] = second compound 0.03 µM, first compound 10 µM
[61] = second compound 0.0949 µM, first compound 0.0316 µM
[62] = second compound 0.0949 µM, first compound 0.1 µM
[63] = second compound 0.0949 µM, first compound 0.316 µM
[64] = second compound 0.0949 µM, first compound 1 µM
[65] = second compound 0.0949 µM, first compound 3.16 µM
[66] = second compound 0.0949 µM, first compound 10 µM
[67] = second compound 0.3 µM, first compound 0.0316 µM
[68] = second compound 0.3 µM, first compound 0.1 µM
[69] = second compound 0.3 µM, first compound 0.316 µM
[70] = second compound 0.3 µM, first compound 1 µM
[71] = second compound 0.3 µM, first compound 3.16 µM
[72] = second compound 0.3 µM, first compound 10 µM
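Further: spheroids exposed to compounds for 7 days before viability read.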

CCC(CC)c1cc(NC2CCC(N)C2)n2nccc2n1 (stereo not drawn) + C#Cc1c(F)ccc2cc(O)cc(-c3ncc4c(N5CC6CCC(C5)N6)nc(OCC56CCCN5CC(F)C6)nc4c3F)c12
pIC50 (second compound 0.0316 µM): 6.17 | pIC50 (second compound 0.1 µM): 6.25 | pIC50 (second compound 0.316 µM): > 7.50 | pIC50 (second compound 1 µM): > 7.50 | pIC50 (second compound 3.16 µM): > 7.50 | pIC50 (second compound 10 µM): > 7.50 | viability, T/C [1]: 79.8% | viability, T/C [2]: 77.9% | viability, T/C [3]: 79.6% | viability, T/C [4]: 34.8% | viability, T/C [5]: 3.07% | viability, T/C [6]: 0.17% | viability, T/C [7]: 56.6% | viability, T/C [8]: 77.6% | viability, T/C [9]: 69% | viability, T/C [10]: 32.4% | viability, T/C [11]: 2.77% | viability, T/C [12]: 0.13% | viability, T/C [13]: 32.8% | viability, T/C [14]: 40% | viability, T/C [15]: 33.4% | viability, T/C [16]: 17.3% | viability, T/C [17]: 2.52% | viability, T/C [18]: 0.1% | viability, T/C [19]: 16.6% | viability, T/C [20]: 21.3% | viability, T/C [21]: 19.9% | viability, T/C [22]: 11.3% | viability, T/C [23]: 2.86% | viability, T/C [24]: 0.14% | viability, T/C [25]: 11.1% | viability, T/C [26]: 14% | viability, T/C [27]: 12.2% | viability, T/C [28]: 10.1% | viability, T/C [29]: 2.81% | viability, T/C [30]: 0.16% | viability, T/C [31]: 9.8% | viability, T/C [32]: 9.61% | viability, T/C [33]: 8.97% | viability, T/C [34]: 6.36% | viability, T/C [35]: 2.12% | viability, T/C [36]: 0.21%

CC(=O)OC12COC1CC(O)C1(C)C(=O)C(O)C3=C(C)C(OC(=O)C(O)C(NC(=O)OC(C)(C)C)c4ccccc4)CC(O)(C(OC(=O)c4ccccc4)C21)C3(C)C (stereo not drawn) + CCn1c(-c2cccnc2C(C)OC)c2c3cc(ccc31)N1CCOC(CC(NC(=O)C(C(C)C)N(C)C(=O)C3(F)CCN(C(=O)C#CC(C)(C)N(C)C)CC3)C(=O)N3CCCC(N3)C(=O)OCC(C)(C)C2)C1
pIC50 (second compound 0.000949 µM): > 7.50 | pIC50 (second compound 0.003 µM): > 7.50 | pIC50 (second compound 0.00949 µM): > 7.50 | pIC50 (second compound 0.03 µM): > 7.50 | pIC50 (second compound 0.0949 µM): > 7.50 | pIC50 (second compound 0.3 µM): > 7.50 | viability, T/C [37]: 6.09% | viability, T/C [38]: 4.29% | viability, T/C [39]: 4.45% | viability, T/C [40]: 5% | viability, T/C [41]: 4.34% | viability, T/C [42]: 4.13% | viability, T/C [43]: 6% | viability, T/C [44]: 5.13% | viability, T/C [45]: 5.03% | viability, T/C [46]: 4.41% | viability, T/C [47]: 4.14% | viability, T/C [48]: 4.35% | viability, T/C [49]: 6.17% | viability, T/C [50]: 4.96% | viability, T/C [51]: 4.57% | viability, T/C [52]: 4.98% | viability, T/C [53]: 4.48% | viability, T/C [54]: 3.96% | viability, T/C [55]: 5.87% | viability, T/C [56]: 4.93% | viability, T/C [57]: 4.72% | viability, T/C [58]: 3.83% | viability, T/C [59]: 4.63% | viability, T/C [60]: 4.2% | viability, T/C [61]: 5.78% | viability, T/C [62]: 4.53% | viability, T/C [63]: 4.78% | viability, T/C [64]: 4.23% | viability, T/C [65]: 4.24% | viability, T/C [66]: 4.22% | viability, T/C [67]: 4.84% | viability, T/C [68]: 3.52% | viability, T/C [69]: 3.6% | viability, T/C [70]: 3.55% | viability, T/C [71]: 3.32% | viability, T/C [72]: 3.72%

CC(Nc1ccc2c(c1)OCCn1cc(N3C(=O)OCC3C(F)F)nc1-2)C(N)=O (stereo not drawn) + CCn1c(-c2cc(N3CCN(C)CC3)cnc2C(C)OC)c2c3cc(ccc31)-c1csc(n1)CC(NC(=O)C1CC1C)C(=O)N1CCCC(N1)C(=O)OCC(C)(C)C2
pIC50 (second compound 0.000949 µM): 6.46 | pIC50 (second compound 0.003 µM): 7.05 | pIC50 (second compound 0.00949 µM): > 7.50 | pIC50 (second compound 0.03 µM): > 7.50 | pIC50 (second compound 0.0949 µM): > 7.50 | pIC50 (second compound 0.3 µM): > 7.50 | viability, T/C [37]: 97.7% | viability, T/C [38]: 86.3% | viability, T/C [39]: 48.7% | viability, T/C [40]: 27.3% | viability, T/C [41]: 14.1% | viability, T/C [42]: 7.59% | viability, T/C [43]: 81.8% | viability, T/C [44]: 46.6% | viability, T/C [45]: 16.8% | viability, T/C [46]: 8.63% | viability, T/C [47]: 3.59% | viability, T/C [48]: 2.34% | viability, T/C [49]: 28% | viability, T/C [50]: 14.8% | viability, T/C [51]: 4.68% | viability, T/C [52]: 2.07% | viability, T/C [53]: 1.18% | viability, T/C [54]: 0.72% | viability, T/C [55]: 8.29% | viability, T/C [56]: 4.59% | viability, T/C [57]: 1.59% | viability, T/C [58]: 0.91% | viability, T/C [59]: 0.49% | viability, T/C [60]: 0.23% | viability, T/C [61]: 4.51% | viability, T/C [62]: 2.41% | viability, T/C [63]: 1.01% | viability, T/C [64]: 0.59% | viability, T/C [65]: 0.45% | viability, T/C [66]: 0.24% | viability, T/C [67]: 3.65% | viability, T/C [68]: 2.08% | viability, T/C [69]: 0.89% | viability, T/C [70]: 0.55% | viability, T/C [71]: 0.35% | viability, T/C [72]: 0.29%

NC1c2ccccc2OC12CCN(c1cnc3c(N4CCCc5ncccc54)n[nH]c3n1)CC2 (stereo not drawn) + C#Cc1c(F)ccc2cc(O)cc(-c3ncc4c(N5CC6CCC(C5)N6)nc(OCC56CCCN5CC(F)C6)nc4c3F)c12
pIC50 (second compound 0.0316 µM): > 7.50 | pIC50 (second compound 0.1 µM): > 7.50 | pIC50 (second compound 0.316 µM): > 7.50 | pIC50 (second compound 1 µM): > 7.50 | pIC50 (second compound 3.16 µM): > 7.50 | pIC50 (second compound 10 µM): > 7.50 | viability, T/C [1]: 39.1% | viability, T/C [2]: 14.9% | viability, T/C [3]: 8.55% | viability, T/C [4]: 7.47% | viability, T/C [5]: 5.16% | viability, T/C [6]: 3.58% | viability, T/C [7]: 14.2% | viability, T/C [8]: 9.2% | viability, T/C [9]: 7.59% | viability, T/C [10]: 7.67% | viability, T/C [11]: 5.13% | viability, T/C [12]: 3.21% | viability, T/C [13]: 10.8% | viability, T/C [14]: 8.96% | viability, T/C [15]: 7.32% | viability, T/C [16]: 7.04% | viability, T/C [17]: 5.5% | viability, T/C [18]: 3.89% | viability, T/C [19]: 9.12% | viability, T/C [20]: 7.57% | viability, T/C [21]: 7.39% | viability, T/C [22]: 5.61% | viability, T/C [23]: 4.48% | viability, T/C [24]: 3.29% | viability, T/C [25]: 8.98% | viability, T/C [26]: 6.65% | viability, T/C [27]: 5.07% | viability, T/C [28]: 4.41% | viability, T/C [29]: 5.32% | viability, T/C [30]: 2.82% | viability, T/C [31]: 6.21% | viability, T/C [32]: 5.08% | viability, T/C [33]: 3.47% | viability, T/C [34]: 2.88% | viability, T/C [35]: 1.6% | viability, T/C [36]: 0.47%
